Calls of active or inactive are those of the source.
Columns and labels:
[1] = target: T1, Nuclear receptor subfamily 0 group B member 1 (Homo sapiens, UniProt P51843); assay type: functional, cell-based;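 further: HEK293T cells transfected with SF-1 and DAX-1 plus StAR promoter luciferase reporter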
T1 sequence (P51843 whole entry): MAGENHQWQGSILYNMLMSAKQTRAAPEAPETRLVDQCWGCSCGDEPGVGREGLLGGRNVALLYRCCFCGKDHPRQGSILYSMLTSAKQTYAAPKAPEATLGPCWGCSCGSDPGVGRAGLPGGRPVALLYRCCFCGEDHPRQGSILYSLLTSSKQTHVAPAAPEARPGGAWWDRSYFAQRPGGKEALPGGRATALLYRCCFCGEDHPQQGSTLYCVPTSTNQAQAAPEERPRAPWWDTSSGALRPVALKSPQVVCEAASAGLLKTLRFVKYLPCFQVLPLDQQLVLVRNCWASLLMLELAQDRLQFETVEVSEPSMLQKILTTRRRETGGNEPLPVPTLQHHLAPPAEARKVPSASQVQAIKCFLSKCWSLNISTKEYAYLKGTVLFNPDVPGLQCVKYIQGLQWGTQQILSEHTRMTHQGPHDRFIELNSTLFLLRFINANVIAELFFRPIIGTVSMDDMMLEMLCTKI

[2] = cells; assay type: functional, cell-based
[3] = ADAM10 protease inhibitors, dose response, selectivity assay for ADAM17 exosite inhibitor project, biochemical, FRET peptide substrate, recombinant human ADAM10 (AID 743259);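 further: ADAM10 enzyme cleaving a FRET peptide substrate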
[4] = HEK293 cell cytotoxicity, dose response, cytotoxicity control, plate reader, cherry-picked samples (AID 743446); assay type: functional, cell-based
[5] = HepG2 cell cytotoxicity, dose response, cytotoxicity control, plate reader, cherry-pick, antagonist series (AID 743416); assay type: functional, cell-based
[6] = A549 cell cytotoxicity, dose response, cytotoxicity control, plate reader, cherry-pick, antagonist series (AID 743412); assay type: functional, cell-based
[7] = MC4R antagonists, dose response, counter-screen for LGR2 antagonist project, cell-based, plate reader, cherry pick (AID 743444); assay type: functional;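 further: transfected HEK 293 cells stimulated with alpha-MSH peptide; potency of inhibitors of the alpha-MSH evoked signal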
[8] = target: T2, Disintegrin and metalloproteinase domain-containing protein 17 (Homo sapiens, UniProt P78536); test: exosite inhibitors of ADAM17, dose response, biochemical (AID 743260)
[9] = LGR2 antagonists, dose response, cell-based, HEK293, CRE-luciferase reporter, cherry pick, set 2 (AID 743343); assay type: functional;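 further: transfected cells were stimulated with diluted bursicon conditioned medium after compound addition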
[10] = test system: H9c2; test: cells; assay type: functional, cell-based; settings: Rattus norvegicus, H9c2, Myocardium;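 further: confirmatory concentration-response retest of ultra-high-throughput screening hits for modulation of myocardial damage; cell death induced by hydrogen peroxide oxidative stress; compound pretreatment for 60 min then peroxide exposure for 2 h; potency is for protecting the cells against peroxide damage rather than for killing them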
[11] = target: T3, Beta-lactamase (Pseudomonas aeruginosa, UniProt Q79MP6); test: […] counterscreen for selective VIM-2 inhibitors: dose response biochemical high throughput screening assay to identify inhibitors of IMP-1 metallo-beta-lactamase.
[12] = target: T4, Cytochrome P450 1A2 (Homo sapiens, UniProt P05177);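 further: PubChem cytochrome P450 panel assay, CYP1A2 panel member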
T4 sequence (P05177 whole entry): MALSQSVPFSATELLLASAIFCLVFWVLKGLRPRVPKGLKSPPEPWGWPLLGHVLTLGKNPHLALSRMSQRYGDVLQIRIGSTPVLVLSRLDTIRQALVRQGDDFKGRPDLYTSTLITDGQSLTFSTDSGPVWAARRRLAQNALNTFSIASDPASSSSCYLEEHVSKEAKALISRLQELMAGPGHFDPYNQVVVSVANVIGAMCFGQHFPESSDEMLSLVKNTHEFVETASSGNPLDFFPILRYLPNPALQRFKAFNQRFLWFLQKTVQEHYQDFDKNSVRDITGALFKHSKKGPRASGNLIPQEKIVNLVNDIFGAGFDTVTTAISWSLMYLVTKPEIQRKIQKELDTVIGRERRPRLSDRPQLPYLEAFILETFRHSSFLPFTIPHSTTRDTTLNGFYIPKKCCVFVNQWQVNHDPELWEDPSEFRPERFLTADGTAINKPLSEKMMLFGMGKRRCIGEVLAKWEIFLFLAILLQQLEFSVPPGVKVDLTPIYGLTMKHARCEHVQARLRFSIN

[13] = target: T3, Beta-lactamase; test: IMP-1 metallo-beta-lactamase inhibitors, dose response, selectivity assay for VIM-2 inhibitor project, biochemical, epi-absorbance (AID 1920)
[14] = target: Cytochrome P450 2C19 (Homo sapiens, UniProt P33261); test: Cytochrome panel assay with activity outcomes. Panel member name: p450-cyp2c19 Compounds with AC50 equal or less than 10 uM are considered active; assay type: functional; settings: read-out: AC50
[15] = target: Cytochrome P450 3A4 (Homo sapiens, UniProt P08684);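 further: CYP3A4 tested as one member of a cytochrome P450 panel screen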
[16] = target: Beta-lactamase (Salmonella choleraesuis (strain SC-B67), UniProt Q5J463); test: Epi-absorbance-based counterscreen for selective VIM-2 inhibitors: dose response biochemical high throughput screening assay to identify inhibitors of TEM-1 serine-beta-lactamase.
[17] = test system: HEK293; test: cells; settings: Homo sapiens
[18] = HepG2 cell cytotoxicity, dose response, cytotoxicity control for Shn3 inhibitor project, CellTiter-Glo, cherry-picked (AID 624134); assay type: functional, cell-based
[19] = target: T5, DNA repair protein RAD52 homolog (Homo sapiens, UniProt P43351); assay type: functional, biochemical
T5 sequence (P43351 whole entry): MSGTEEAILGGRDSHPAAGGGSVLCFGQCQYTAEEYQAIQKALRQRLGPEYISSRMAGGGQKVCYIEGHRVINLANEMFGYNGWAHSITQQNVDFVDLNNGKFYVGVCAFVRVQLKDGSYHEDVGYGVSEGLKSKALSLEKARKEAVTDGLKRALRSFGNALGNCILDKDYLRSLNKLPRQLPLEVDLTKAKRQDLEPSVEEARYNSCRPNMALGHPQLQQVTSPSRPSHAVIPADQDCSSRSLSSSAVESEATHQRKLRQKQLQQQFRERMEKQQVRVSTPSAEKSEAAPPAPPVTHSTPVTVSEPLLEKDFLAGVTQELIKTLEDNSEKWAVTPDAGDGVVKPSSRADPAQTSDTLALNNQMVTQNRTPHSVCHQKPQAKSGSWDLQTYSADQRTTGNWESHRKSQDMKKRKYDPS

[20] = test system: HEK293; test: cells; settings: Homo sapiens; remark: listed apart in the source
[21] = Shn3 3'UTR reporter inhibitors, dose response, cell-based, Clone20 osteoblasts, firefly luciferase, cherry-picked (AID 624132); assay type: functional;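 further: firefly luciferase luminescence from reporter carrying the Shn3 3'UTR in osteoblasts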
[22] = control 3'UTR Renilla luciferase suppression, dose response, counter-screen for Shn3 inhibitor project, cell-based, Clone20-Shn3RL, cherry-picked (AID 624133); assay type: functional
[23] = target: T6, Trace amine-associated receptor 1 (Homo sapiens, UniProt Q96RJ0); test: Counterscreen for agonists of the human trace amine associated receptor 1 (hTAAR1): Fluorescence-based cell-based high throughput dose response assay to identify hTAAR1 agonist that also desensitize TAAR1 receptor response.; assay type: functional
T6 sequence (Q96RJ0 whole entry): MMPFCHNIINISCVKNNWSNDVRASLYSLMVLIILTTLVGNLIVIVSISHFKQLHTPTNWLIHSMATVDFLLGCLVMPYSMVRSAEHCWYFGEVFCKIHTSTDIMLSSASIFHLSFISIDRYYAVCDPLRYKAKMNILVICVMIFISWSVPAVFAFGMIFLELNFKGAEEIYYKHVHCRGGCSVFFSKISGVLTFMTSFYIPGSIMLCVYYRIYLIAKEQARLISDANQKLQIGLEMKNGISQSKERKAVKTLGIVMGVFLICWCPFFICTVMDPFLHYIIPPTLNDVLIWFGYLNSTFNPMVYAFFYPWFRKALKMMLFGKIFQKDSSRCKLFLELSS

[24] = cells; assay type: functional, cell-based; remark: listed apart in the source
[25] = target: T6, Trace amine-associated receptor 1; test: Fluorescence-based cell-based high throughput dose response assay to identify agonists of the human trace amine associated receptor 1 (TAAR1).; assay type: functional
[26] = Luminescence Cell-Based Dose Retest to Confirm Inhibitors of Cancer Stem Cells. [Related pubchem assays (depositor defined):AID2717, AID2721]; assay type: functional; settings: Homo sapiens
[27] = cells; assay type: functional, cell-based; remark: listed apart in the source
[28] = target: NAD-dependent protein deacylase sirtuin-5, mitochondrial (Homo sapiens, UniProt Q9NXA8); test: SIRT5 desuccinylase inhibitors, dose response, biochemical, fluorescence imaging, cherry-pick, set 5 (AID 720591);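 further: desuccinylation of succinyl peptide AMC substrate read as fluorescence after trypsin release; potency of inhibitors that lower fluorescence and may act on trypsin instead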
[29] = growth suppression of PTEN-null colon cells, dose response, cell-based, HCT116 PTEN knockout (AID 1047); assay type: functional;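 further: HCT116 colon tumor cells with PTEN knocked out; cells exposed to compound for 60 hours before readout; potency for loss of cell viability measured by luminescence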
[30] = target: T2, Disintegrin and metalloproteinase domain-containing protein 17; test: ADAM17 protease inhibitors, dose response, counter-screen for ADAM10 exosite inhibitor project, biochemical, quenched FRET substrate (AID 743253)
[31] = growth suppression of beta-catenin-knockout colon cells, dose response, cell-based, HCT116, human colon tumor (AID 1045); assay type: functional;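 further: HCT116 colon tumor cells with beta catenin knocked out; cells exposed to compound for 60 hours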
[32] = target: T7, fMet-Leu-Phe receptor (Homo sapiens, UniProt P21462); test: FPR ligands, dose response (AID 519); assay type: functional
T7 sequence (P21462 whole entry): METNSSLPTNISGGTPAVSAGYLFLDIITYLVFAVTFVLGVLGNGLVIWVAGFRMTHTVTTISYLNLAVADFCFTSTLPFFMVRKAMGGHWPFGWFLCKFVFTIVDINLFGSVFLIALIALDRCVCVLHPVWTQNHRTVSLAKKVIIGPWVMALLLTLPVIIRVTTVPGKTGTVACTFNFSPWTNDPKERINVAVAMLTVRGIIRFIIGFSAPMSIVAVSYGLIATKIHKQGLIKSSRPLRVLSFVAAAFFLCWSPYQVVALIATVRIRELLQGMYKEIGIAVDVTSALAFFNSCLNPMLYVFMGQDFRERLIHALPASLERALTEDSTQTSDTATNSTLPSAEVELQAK

[33] = cells
[34] = target: Major prion protein (Homo sapiens, UniProt P04156); assay type: functional, cell-based
[35] = target: Luciferin 4-monooxygenase (Photinus pyralis, UniProt P08659); test: firefly luciferase enzyme inhibitors, dose response, biochemical, luminescence (AID 1891)
[36] = Luminescence Cell-Based Dose Confirmation HTS to Identify Inhibitors of Platelet Dense Granule Release. [Related pubchem assays: 1663 (Primary HTS), 1678 (Summary of Project)]; assay type: functional

Structure (SMILES): Cc1cccc(NC(=O)c2ccc3c(=O)n4c(nc3c2)CCCCC4)n1
- IC50 [1]: > 0.834 µM (active)
- IC50 [2]: > 67.5 µM (inactive)

Structure (SMILES): CCc1nc2ccc(C(=O)Nc3cc(-c4ccccc4)ccc3OC)cn2c1N(C)Cc1nccs1
- IC50 [3]: > 69.5 µM (inactive)
- AC50 [4]: 18.1 µM (active)
- AC50 [5]: 51.1 µM (active)
- AC50 [6]: 21.6 µM (active)
- AC50 [7]: 18.4 µM (active)
- IC50 [8]: > 69.5 µM (inactive)
- AC50 [9]: 9.18 µM (active)
- IC50 [10]: > 79 µM (inactive)

Structure (SMILES): CC(C)(C)C(=O)Nc1nnc(SCC(=O)NCc2cccs2)s1
- IC50 [11]: > 59.6 µM (inactive)
- AC50 [12]: 22.4 µM (inconclusive)
- IC50 [13]: > 59.6 µM (inactive)
- AC50 [14]: 3.16 µM (inconclusive)
- AC50 [15]: 25.1 µM (inconclusive)
- IC50 [16]: > 59.6 µM (inactive)

Structure (SMILES): CN(C)CCNC(=O)c1ccc(Cl)c2cc3ccccc3nc12
- EC50 [17]: > 2.21 µM (active)
- AC50 [18]: 4.37 µM (active)
- AC50 [19]: 0.846 µM (active)
- EC50 [20]: > 59.7 µM (inactive)
- AC50 [21]: 9.85 µM (active)
- AC50 [22]: 24 µM (active)

Structure (SMILES): N=C(N/N=C\c1ccc(F)cc1)N/N=C\c1ccc(F)cc1
- IC50 [23]: 4.9 µM (active)
- IC50 [24]: > 29.9 µM (inactive)
- EC50 [25]: 1.75 µM (active)
- AC50 [26]: 5.38 µM (active)
- EC50 [27]: 26.1 µM (inactive)

Structure (SMILES): OC(CNCc1ccccc1)COc1ccccc1 (stereo unspecified)
- AC50 [28]: > 30 µM (inactive)

Structure (SMILES): N#Cc1c(Cl)nc(N/N=C/c2ccccc2)c(Cl)c1Cl
- EC50 [29]: 12.1 µM (active)
- IC50 [30]: > 69.5 µM (inactive)
- EC50 [31]: 6.92 µM (active)

Structure (SMILES): Cc1ccc2c(CN(C)Cc3ccccc3)cc(=O)oc2c1
- IC50 [1]: > 67.6 µM (inactive)
- IC50 [2]: > 67.6 µM (inactive)

Structure (SMILES): Cc1ccsc1C1C2=C(O)CC(C)(C)CC2=Nc2ncnn21 (stereo unspecified)
- Ki [32]: 12.5 µM (active)

Structure (SMILES): Cc1ccc(Cc2c(-c3ccco3)nc3ccc(Br)cn23)cc1
- IC50 [33]: 56.8 µM (inactive)
- IC50 [34]: 8.5 µM (active)

Structure (SMILES): CN1Cc2c(N3CCOCC3)nc3sc(C(=O)c4ccccc4)c(N)c3c2CC1(C)C
- AC50 [19]: 32.1 µM (active)

Structure (SMILES): C=CCN1C(=O)C2(C(C(=O)c3ccc4c(c3)OCCO4)=C(O)C(=O)N2CCCOC)c2ccccc21 (stereo unspecified)
- Ki [32]: > 66.7 µM (inactive)

Structure (SMILES): c1ccc(C2CNCCc3ccccc32)cc1 (stereo unspecified)
- IC50 [23]: 3.36 µM (active)
- IC50 [24]: > 29.9 µM (inactive)
- EC50 [25]: 1.41 µM (active)
- EC50 [27]: > 29.9 µM (inactive)

Structure (SMILES): CN(C)CCCN=c1cc(-c2ccccc2)oc2ccc(Cl)cc12
- AC50 [19]: 4.38 µM (active)

Structure (SMILES): C/C(NCc1cccnc1)=C1/C(=O)NC(=O)N(c2ccc(C)cc2)C1=O
- IC50 [33]: > 138 µM (inactive)
- IC50 [34]: 10.2 µM (inactive)

Structure (SMILES): CCc1ccccc1NC(=O)CNC(=O)CNC(=O)c1cccs1
- AC50 [28]: 25.1 µM (active)

Structure (SMILES): COC(=O)CSc1nc(COc2ccccc2)nc2ccccc12
- IC50 [33]: > 138 µM (inactive)
- IC50 [34]: 8.48 µM (active)
- EC50 [35]: > 112 µM (not active)
- EC50 [36]: > 112 µM (not active)

Structure (SMILES): COc1cccc(Nc2nc(C(C)N)cs2)n1 (stereo unspecified)
- IC50 [23]: 4.76 µM (active)
- IC50 [24]: > 29.9 µM (inactive)
- EC50 [25]: 1.17 µM (active)
- EC50 [27]: > 29.9 µM (inactive)

Structure (SMILES): Nc1[nH]c(C(=O)c2ccc(Br)cc2)c(-c2ccc(Cl)cc2[N+](=O)[O-])c1C(=O)NCCc1c[nH]c2ccccc12
- IC50 [3]: 9.24 µM (active)
- IC50 [8]: > 69.5 µM (inactive)

Source: ChEMBL document CHEMBL1201862, “PubChem BioAssay data set” (2004)
